Measurements: PubChem BioAssay AID463074 (Broad Institute, 2010)
Activity calls are given as the source filed them.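 How the source made its calls: active means AC50 no more than tenfold above the top dose tested, or full inhibition at every dose with a flat fit (cut at about 19 µM in these data); inconclusive means flat curve fit with inhibition between 30% and 70%, or poor fit; inactive means AC50 more than tenfold above the top dose tested.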

Tested on: HMLE_sh_eGFP viability, CellTiter-Glo luminescence, 72 h
Experiment: viability loss of HMLE_sh_eGFP cells – cell-based, luminescence, counter-screen for HMLE_sh_ECad selective toxicity project, dose response (AID 463074);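 further: counterscreen control line to flag general toxicity for the HMLE_sh_ECad screen; potency for loss of viability as luminescence drops below DMSO wells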

CNC(=O)C1C(=S)NC(N)=C(C#N)C1c1ccccc1 (centres undefined)
AC50: > 19.5 µM (inactive)

Cc1cc(C(=O)NNc2ccc(F)cc2F)no1
AC50: 1.6 µM

CC(C)C[C@@H](CO)N(Cc1ccccc1)S(=O)(=O)N(Cc1ccccc1)[C@H](CO)CC(C)C
AC50: 7.24 µM

OC(CNCc1ccco1)Cn1c2ccc(Br)cc2c2cc(Br)ccc21 (centres undefined)
AC50: 3.64 µM

Oc1ccc(-c2cc(-c3ccc(O)cc3)nc(-c3ccccc3)n2)cc1
AC50: 3.77 µM

N#Cc1c([N+](=O)[O-])cc([N+](=O)[O-])cc1S(=O)(=O)Cc1ccccc1
AC50: 3.62 µM

CC1=NN(c2ccccc2)C(=O)/C1=C/C=C/c1ccccc1
AC50: 3.57 µM

Cc1cc(C)c2sc(N(CCCN(C)C)C(=O)c3ccc(S(=O)(=O)N4CCCc5ccccc54)cc3)nc2c1
AC50: 3.73 µM

O=C(c1ccco1)c1nnn(Cc2ccccc2)c1-c1ccccc1
AC50: 6.47 µM

COc1cc(CNC(C)c2ccccc2)cc(Br)c1OCc1ccccc1 (centres undefined)
AC50: 6.75 µM

CC1(C)CC2CC(C)(CN2/C=N/c2sc3c(c2C#N)CC(C)(C)NC3(C)C)C1 (centres undefined)
AC50: 2.59 µM

O=C(NCc1nc(-c2ccc(C(F)(F)F)cc2)no1)Nc1ccc(OC(F)(F)F)cc1
AC50: 3.12 µM

CC1(C)Cc2ccccc2/C(=C/C(=O)c2ccccc2)N1
AC50: 7.27 µM

CC1CCN(c2nc(Cl)nc(Nc3ccc([N+](=O)[O-])cc3)n2)CC1
AC50: 3.41 µM

O=[N+]([O-])c1ccc(COc2ccc(-c3[nH]ncc3-c3ccccc3)c(O)c2)cc1
AC50: 8.38 µM

COc1cc(-c2ccc3c(=O)c4ccccc4n(C)c3c2)cc(OC)c1OC
AC50: 8.21 µM

COc1ccc(-c2sc3ccc(OC)cc3c2C#Cc2ccccn2)cc1
AC50: 5.88 µM

CN1CCN(c2ccc(NC(=O)c3ccc(Cl)cc3)cn2)CC1
AC50: > 19.5 µM (inactive)

CCN(CC)CCNC(=O)c1[nH]c2ccc(OCc3ccccc3)cc2c1C
AC50: 1.81 µM

Cc1cccc(-n2c(/C=C/c3ccc([N+](=O)[O-])o3)nc3ccccc3c2=O)c1
AC50: 1.99 µM

CCOc1ccc2nc(NC3=NC(c4ccc(OC)cc4)CC(=O)N3)nc(C)c2c1 (centres undefined)
AC50: 7.28 µM

O=C1Nc2ccc(Cl)cc2[C@@](C#CC2CC2)(C(F)(F)F)O1
AC50: 7.55 µM

CC(C)c1cc(-c2cc(-c3ccccc3)on2)nc(NC2CCCC2)n1
AC50: 7.45 µM

Nc1nc(=S)c2ncn([C@@H]3O[C@H](CO)[C@@H](O)[C@H]3O)c2[nH]1
AC50: 0.465 µM

O=C1C2C3C=CC(C3)C2C(=O)N1c1ccc(N2CCN(c3ccccn3)CC2)c([N+](=O)[O-])c1 (centres undefined)
AC50: 3.42 µM

O=C(NC(c1ccc(Cl)cc1)c1c(O)ccc2ccccc12)c1ccccc1 (centres undefined)
AC50: 2 µM

COCC(C)NC(=O)NC1(C(F)(F)F)Oc2ccc(Cl)cc2O1 (centres undefined)
AC50: 18.3 µM

CCOCCCNC(=O)/C(C#N)=C/c1ccc([N+](=O)[O-])o1
AC50: 8.21 µM

Cc1ccc(COc2ccc(Br)cc2/C=N/O)cc1
AC50: 5.23 µM

Cc1cc(Nc2ccccc2)nc(-c2ccccc2O)n1
AC50: 7.92 µM

CC1=NN(c2ccccc2)C(=O)/C1=C\C=C\c1ccccc1
AC50: 3.55 µM

CCOC(=O)c1c(NC(=O)/C=C/c2ccc3c(c2)OCO3)sc(C)c1CC
AC50: 1.35 µM

O=C(/C(=C\c1ccccc1)c1nc2ccccc2[nH]1)c1ccc(Cl)cc1
AC50: 3.27 µM

COc1ccc(-c2sc3cc4c(cc3c2-c2ccc(OCCN3CCOCC3)cc2)OCO4)cc1
AC50: 0.254 µM

C[C@@H]1CN([C@H](C)CO)C(=O)c2cc(NC(=O)Nc3ccc(C(F)(F)F)cc3)ccc2O[C@H]1CN(C)S(=O)(=O)c1ccc(Cl)cc1
AC50: 3.84 µM

CCCSc1nsc(NC(=O)C(c2ccccc2)c2ccccc2)n1
AC50: 3.64 µM

CC(C)N1CCc2c(sc(NC(=O)c3cc(-c4cccs4)nc4ccccc34)c2C(N)=O)C1
AC50: 12.9 µM

O=C(NCCN1CCOCC1)NC1(C(F)(F)F)Oc2ccc(Cl)cc2O1 (centres undefined)
AC50: 14 µM

COc1ccc2sc(-c3ccccc3OC)c(-c3ccc(O)cc3)c2c1
AC50: 6.71 µM

CCCCCc1cc(=O)oc2c(C(CCN3CCCC(C)C3)c3ccc4c(c3)OCO4)c(OC)cc(OC)c12 (centres undefined)
AC50: 6.78 µM

O=C1CC(c2cc(Br)ccc2F)c2cc3c(cc2N1)CCC3 (centres undefined)
AC50: 0.196 µM

Cc1ccc(S[C@@H](CCN2CC[C@H](C(C)(C)C)CCC2=O)c2ccccc2)cc1
AC50: 3.57 µM

O=C(Nc1ccc(-c2csc(Nc3cccc(C(F)(F)F)c3)n2)cc1)c1cc([N+](=O)[O-])cc(C(F)(F)F)c1
AC50: 1.93 µM

CCC(C)n1ncn(-c2ccc(N3CCN(c4ccc(O)cc4)CC3)cc2)c1=O (centres undefined)
AC50: 1.47 µM

Fc1ccc(C(OCCN2CCN(CCCc3ccccc3)CC2)c2ccc(F)cc2)cc1
AC50: 3.12 µM

CC(=O)c1ccc(N2CCN(c3ccc(S(=O)(=O)NCCCN(C)C)cc3[N+](=O)[O-])CC2)cc1
AC50: 2.92 µM

COc1ccc(C(=O)/C=C2/C(=O)Nc3ccccc32)c(OC)c1
AC50: 6.75 µM

c1cn2c(NC3CCCCC3)c(-c3ccc(SC4CCCCC4)cc3)nc2cn1
AC50: 3.26 µM

Cc1cc(C)cc(C(=O)Nc2nnc(SCC(=O)N3CCCc4ccccc43)s2)c1
AC50: > 19.5 µM (inactive)

CC(C)N(CCC(=O)c1ccc2ccccc2c1)Cc1ccccc1
AC50: 9.86 µM

O=C(c1cccc(S(=O)(=O)N2CCc3ccccc3C2)c1)N1CCN(c2ccc(O)cc2)CC1
AC50: 2.9 µM

C=C(C)[C@@H]1CC[C@]2(C(=O)O)CC[C@]3(C)C(CCC4[C@@]5(C)CC[C@H](O)C(C)(C)C5CC[C@]43C)C12 (some centres undefined)
AC50: 5.71 µM

Cc1cccc(NC(=S)N/N=C/c2ccc([N+](=O)[O-])s2)c1
AC50: 6.78 µM

CCCCNc1c(-c2cccc(Sc3ccc(OC)cc3)c2)nc2ccccn12
AC50: 6.56 µM

CC(C)Oc1cccc(C(=O)NC(=S)Nc2ccccc2N2CCOCC2)c1
AC50: 13.9 µM

O=C(Nc1cccc(-c2csc(Nc3ccccc3)n2)c1)c1ccccc1
AC50: 4.45 µM

CN(C)CCOc1ccc(C(C)(C)c2ccccc2)cc1
AC50: 5.19 µM

CC(=O)c1ccc(N2CCN(S(=O)(=O)c3cc(-c4cc(C)no4)ccc3C(C)C)CC2)cc1
AC50: 0.205 µM

CCCC[C@@H](CN[C@H](C)CNC)NCC1CCC(C(C)(C)C)CC1 (some centres undefined)
AC50: 6.37 µM

O=c1c2ccccc2nc2n1C1(CCCCC1)Cc1ccccc1-2
AC50: 4.03 µM

CCc1ccc(-c2cc(C(=O)N3N=C(C(F)F)CC3(O)C(F)F)c3ccccc3n2)cc1 (centres undefined)
AC50: 6.4 µM

CC1CCCN(CCCNC(=O)c2cc3c(Cl)nc4ccccc4c3s2)C1 (centres undefined)
AC50: 8.14 µM

NS(=O)(=O)c1ccc(N/N=C/c2cn(-c3ccccc3)nc2-c2cccs2)c([N+](=O)[O-])c1
AC50: 1.9 µM

COc1cc(/C=N/N(c2ccccc2)c2ccccc2)ccc1O
AC50: 6.34 µM

Cc1nn(Cc2ccc(Cl)cc2)c(C)c1NC(=O)c1cc(-c2ccc3c(c2)OCO3)on1
AC50: 1.17 µM

Cc1ccc(-c2nc(C(Cl)Cl)c3ccccc3n2)cc1
AC50: 1.33 µM

Cc1cccc(NC(=O)c2ccc(COc3ccc(Cl)cc3Cl)o2)n1
AC50: 3.38 µM

CC1(C)C=Cc2c(c3c(c4c(=O)c(-c5ccc(O)cc5)coc24)OC(C)(C)CC3)O1
AC50: 7.5 µM

CC12CCC(C/C1=N\N=C1\NC(=O)/C(=C\c3ccc(Cl)cc3)S1)C2(C)C (centres undefined)
AC50: 3.25 µM

CC(C)C[C@H](NC(=O)c1nc[nH]c1C(=O)NC(c1ccccc1)c1ccccc1)C(=O)OC(C)(C)C
AC50: 3.67 µM

CCCCCc1cc(=O)oc2c(C(CCN3CCCCC3)c3ccc(OC)cc3)c(OC)cc(OC)c12 (centres undefined)
AC50: 7.47 µM

c1ccc(-c2sc3ccccc3c2-c2ccc(OCCN3CCCC3)cc2)cc1
AC50: 2.37 µM

COc1ccc(/C=N/Nc2cc(N3CCCC3)nc(N3CCCC3)n2)cc1
AC50: 5.14 µM

Cc1c(C(=O)c2cccc3ccccc23)c2cccc3c2n1[C@H](CN1CCOCC1)CO3
AC50: 3.66 µM
